The values below are quoted from earlier work in article PMC10410440, “Preclinical PK investigation of a novel IDO1/TDO dual inhibitor—SHR9146 in mouse plasma and tissues by LC-MS/MS” (Frontiers in Oncology, 2023).

Molecules are shown by their SMILES.

Details of this data set: method as in PMID 31221619. The note with it: phase III trial; epacadostat combined with a PD-1 checkpoint inhibitor compared with pembrolizumab alone; cited from earlier work.

As for `NS(=O)(=O)NCCNc1nonc1C(=NO)Nc1ccc(F)c(Br)c1` [epacadostat], the progression-free survival rate result was “no significant improvement”.
